{
  "source": "patent US7906156B2",
  "about": "“CB2 receptors blocks accumulation of human hepatic myofibroblasts: a novel antifibrogenic pathway in the liver” (priority 2003, dated 2011)",
  "key": {"[1]": {"target": "T1, CB2 receptors (Homo sapiens, UniProt P34972)", "T1 sequence (P34972 whole entry)": "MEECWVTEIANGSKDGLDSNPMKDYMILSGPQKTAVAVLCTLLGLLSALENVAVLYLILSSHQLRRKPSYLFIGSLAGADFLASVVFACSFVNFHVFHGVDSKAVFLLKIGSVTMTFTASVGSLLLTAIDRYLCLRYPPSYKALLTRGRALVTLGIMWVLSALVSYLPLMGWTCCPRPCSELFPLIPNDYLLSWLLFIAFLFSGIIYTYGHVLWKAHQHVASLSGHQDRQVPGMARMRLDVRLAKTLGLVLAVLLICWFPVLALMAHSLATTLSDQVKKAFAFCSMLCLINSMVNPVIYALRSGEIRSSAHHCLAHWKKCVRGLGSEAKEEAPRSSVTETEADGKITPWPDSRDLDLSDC", "test": "forskolin-stimulated cAMP levels in CHO overexpressing CB2 receptors", "format": "cell-based", "set-up": "host or cells: CHO cells", "conditions": "CHO overexpressing CB2, 100 nM, 10 min"}, "[2]": {"tested_on": "human hepatic myofibroblasts", "test": "Cell viability (MTS assay) / cytotoxicity of serum-deprived hepatic myofibroblasts", "format": "cell-based", "conditions": "for IC50: 16 hours, MTS assay, read-out: half maximal decrease in cell viability", "description": "Cell viability. […] CellTiter 96 AQueous One Solution reagent was added to each well and absorbance was recorded at 490 nm."}, "[3]": {"target": "T2, CB1 receptors (Homo sapiens, UniProt P21554)", "T2 construct": "host or cells: CHO cells", "T2 sequence (P21554 whole entry)": "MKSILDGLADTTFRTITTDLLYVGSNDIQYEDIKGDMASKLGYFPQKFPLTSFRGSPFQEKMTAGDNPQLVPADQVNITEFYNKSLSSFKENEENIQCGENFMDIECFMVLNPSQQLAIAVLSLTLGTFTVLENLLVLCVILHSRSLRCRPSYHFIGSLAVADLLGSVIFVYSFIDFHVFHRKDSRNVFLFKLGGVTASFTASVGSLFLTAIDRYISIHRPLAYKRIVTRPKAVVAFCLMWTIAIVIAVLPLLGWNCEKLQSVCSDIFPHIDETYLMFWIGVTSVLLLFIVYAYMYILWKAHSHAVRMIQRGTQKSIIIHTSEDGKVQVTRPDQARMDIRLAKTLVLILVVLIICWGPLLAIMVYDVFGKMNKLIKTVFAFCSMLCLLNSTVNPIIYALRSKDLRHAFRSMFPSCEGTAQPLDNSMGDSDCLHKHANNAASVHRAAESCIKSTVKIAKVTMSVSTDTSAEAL", "format": "cell-based"}, "[4]": {"tested_on": "human hepatic myofibroblasts", "test": "cells", "format": "cell-based", "conditions": "for effect on DNA synthesis / growth / IC50 / maximal reduction of PDGF-BB-stimulated DNA synthesis: 20 ng/ml PDGF-BB; for effect on the antiproliferative effect of THC: pretreatment before THC + PDGF-BB; for IC50: 30 hrs, read-out: half maximal inhibition (IC50) of DNA synthesis; for maximal reduction of PDGF-BB-stimulated DNA synthesis: at 500 nM"}, "[5]": {"tested_on": "caspase-3", "test": "Caspase-3-like activity on cell lysates", "conditions": "for effect on caspase-3 activation elicited by THC: pretreatment before THC"}, "[6]": {"target": "T1, CB2 receptors", "test": "[35S]GTPγS binding assay, membranes of CHO cells overexpressing CB2 receptors"}, "[7]": {"tested_on": "cAMP", "test": "cAMP levels in human hepatic myofibroblasts", "format": "cell-based", "conditions": "not shown"}, "[8]": {"tested_on": "COX", "test": "COX activity (PGE2 released after arachidonic acid)", "conditions": "1000 nM THC, 8 h"}, "[9]": {"tested_on": "reactive oxygen species", "test": "Intracellular reactive oxygen species (DCFH-DA fluorescence)", "format": "cell-based, human"}, "[10]": {"target": "T1, CB2 receptors", "test": "[35S]GTPγS binding assay, membranes of human hepatic myofibroblasts"}, "[11]": {"tested_on": "human hepatic myofibroblasts", "test": "DNA laddering and DAPI nuclear morphology", "format": "cell-based", "description": "(A) Phase-contrast analysis (Magnification ×100). […] (C) Caspase-3-like activity.\nApoptosis assays. […] Nuclear morphology was assayed using DAPI staining."}, "[12]": {"tested_on": "COX-2", "test": "COX-2 protein induction (Western blot)", "conditions": "8 h"}},
  "note": "Structures can show the parent of a compound that is named as a salt. Residues, ends and D or L forms follow the SMILES beside them. *: point of attachment. Cbz = O=C(OCc1ccccc1)*; CH2F = FC*",
  "data": [
    {"compound": "CCCCC/C=C\\C/C=C\\C/C=C\\C/C=C\\CCCC(=O)NCCCl", "note": "[ACEA, N-(2-Chloroethyl)-5Z,8Z,11Z,14Z-eicosatetraenamide]", "values": [
      {"measurement": "effect on forskolin-stimulated cAMP levels", "setting": "[1]", "value": "had no effect"},
      {"measurement": "cytotoxic / apoptotic effect on hepatic myofibroblasts", "setting": "[2]; serum-deprived cells", "value": "not cytotoxic"},
      {"measurement": "effect on forskolin-stimulated cAMP levels", "setting": "[3]", "value": "reduced"},
      {"measurement": "effect on DNA synthesis / growth", "setting": "[4]", "value": "had no effect"}
    ]},
    {"compound": "CCCCCCC(C)(C)c1ccc([C@@H]2C[C@H](O)CC[C@H]2CCCO)c(O)c1", "note": "[CP 55940, (−)-cis-3-[2-Hydroxy-4-(1,1-dimethylheptyl)phenyl]-trans-4-(3-hydroxypropyl)cyclohexanol]", "values": [
      {"measurement": "cytotoxic / apoptotic effect on hepatic myofibroblasts", "setting": "[2]; serum-deprived cells", "value": "cytotoxic"}
    ]},
    {"compound": "[Cl-].[Mn+3].[O-]c1ccccc1C=NCCN=Cc1ccccc1[O-]", "note": "[EUK 8]", "values": [
      {"measurement": "effect on caspase-3 activation elicited by THC", "setting": "[5]", "value": "blunted"},
      {"measurement": "effect on the antiproliferative effect of THC", "setting": "[4]", "value": "did not affect"}
    ]},
    {"compound": "CCCCCCC(C)(C)c1cc(O)c2c(c1)OC(C)(C)[C@@H]1CC=C(CO)C[C@@H]21", "note": "[HU-210, (6aR)-trans-3-(1,1-Dimethylheptyl)-6a,7,10,10a-tetrahydro-1-hydroxy-6,6-dimethyl-6H-dibenzo[b,d]pyran-9-methanol]", "values": [
      {"measurement": "cytotoxic / apoptotic effect on hepatic myofibroblasts", "setting": "[2]; serum-deprived cells", "value": "cytotoxic"}
    ]},
    {"compound": "CCCn1c(C)c(C(=O)c2cccc3ccccc23)c2ccccc21", "note": "[JWH-015, (2-Methyl-1-propyl-1H-indol-3-yl)-1-naphthalenylmethanone]", "values": [
      {"measurement": "cytotoxic / apoptotic effect on hepatic myofibroblasts", "setting": "[2]; serum-deprived cells", "value": "apoptotic"},
      {"measurement": "IC50", "setting": "[2]; serum-deprived cells", "value": 1000, "unit": "nM"},
      {"measurement": "cytotoxic / apoptotic effect on hepatic myofibroblasts", "setting": "[2]; serum-deprived cells, listed as JW-015", "value": "reproduced"},
      {"measurement": "effect on DNA synthesis / growth", "setting": "[4]", "value": "reproduced"},
      {"measurement": "IC50", "setting": "[4]", "value": 150, "unit": "nM"},
      {"measurement": "maximal reduction of PDGF-BB-stimulated DNA synthesis", "setting": "[4]", "value": 60, "unit": "%"}
    ]},
    {"compound": "CC(=O)N[C@@H](CS)C(=O)O", "note": "[NAC, N-Acetyl Cysteine]", "values": [
      {"measurement": "effect on caspase-3 activation elicited by THC", "setting": "[5]", "value": "blunted"},
      {"measurement": "effect on the antiproliferative effect of THC", "setting": "[4]", "value": "did not affect"}
    ]},
    {"compound": "CS(=O)(=O)Nc1ccc([N+](=O)[O-])cc1OC1CCCCC1", "note": "[NS-398, N-(2-cyclohexyloxy-4-nitrophenyl)methane sulfonamide]", "values": [
      {"measurement": "effect on caspase-3 activation elicited by THC", "setting": "[5]", "value": "did not affect"},
      {"measurement": "effect on cytotoxic effect / cell death triggered by THC", "setting": "[2]; pretreatment before THC", "value": "did not affect"},
      {"measurement": "effect on the antiproliferative effect of THC", "setting": "[4]", "value": "reduced"},
      {"measurement": "effect on the antiproliferative effect of THC", "setting": "[4]; listed as NS 398", "value": "blunted"}
    ]},
    {"compound": "Cc1c(C(=O)NN2CCCCC2)nn(-c2ccc(Cl)cc2Cl)c1-c1ccc(Cl)cc1", "note": "[SR 141716, N-pipéridino-5-(4-chlorophényl)-1-(2,4-dichlorophényl)-4-méthylpyrazole-3-carboxamide]", "values": [
      {"measurement": "effect on apoptosis elicited by HU-210", "setting": "[2]", "value": "had no effect"}
    ]},
    {"compound": "[2H]C([2H])([2H])CCCCc1cc(O)c2c(c1)OC(C)(C)C1CCC(C)=CC21", "note": "(stereo not drawn) [THC, 6a,7,8,10a-Tetrahydro-6,6,9-trimethyl-3-(pentyl-5,5,5-d3)-6H-dibenzo(b,d)pyran-1-ol]", "values": [
      {"measurement": "concentration giving maximal activation of [35S]GTPγS binding", "setting": "[6]", "value": 10, "unit": "nM"},
      {"measurement": "cAMP levels in response to compound", "setting": "[7]", "value": "not raised"},
      {"measurement": "time of peak caspase-3 activity", "setting": "[5]", "value": "4 to 6", "unit": "h"},
      {"measurement": "maximal increase of caspase-3 activity", "setting": "[5]; 4 μM THC, 5 hr (FIG. 6C)", "value": "6.3±2", "unit": "fold"},
      {"measurement": "maximal increase in caspase-3 activity", "setting": "[5]; time course, peak after 4-6 hr", "value": 6.7, "unit": "fold"},
      {"measurement": "COX activity", "setting": "[8]", "value": "stimulates COX activity"},
      {"measurement": "time to ROS production after exposure", "setting": "[9]", "value": "≤ 20", "unit": "min"},
      {"measurement": "increase in production of intracellular reactive oxygen species", "setting": "[9]; 3 μM THC", "value": 1.5, "unit": "fold"},
      {"measurement": "IC50", "setting": "[2]; Homo sapiens, serum-deprived cells", "value": 1500, "unit": "nM"},
      {"measurement": "concentration giving maximal decrease in cell survival", "setting": "[2]; serum-deprived cells", "value": 2, "unit": "µM"},
      {"measurement": "cytotoxic / apoptotic effect on hepatic myofibroblasts", "setting": "[2]; serum-deprived cells", "value": "cytotoxic effects"},
      {"measurement": "concentration giving maximal effect on [35S]GTPγS binding", "setting": "[10]", "value": 100, "unit": "nM"},
      {"measurement": "DNA laddering on agarose gel electrophoresis", "setting": "[11]; 4 μM THC", "value": "dramatic DNA laddering"},
      {"measurement": "nuclear morphology (DAPI staining)", "setting": "[11]; 4 μM THC", "value": "condensed nuclei"},
      {"measurement": "IC50", "setting": "[4]; Homo sapiens", "value": 200, "unit": "nM"},
      {"measurement": "maximal reduction of PDGF-BB-stimulated DNA synthesis", "setting": "[4]", "value": 50, "unit": "%"},
      {"measurement": "induction of COX-2", "setting": "[12]", "value": "strong induction"}
    ]},
    {"compound": "Cc1c(C(=O)c2cccc3ccccc23)c2cccc3c2n1[C@H](CN1CCOCC1)CO3", "note": "[WIN-55.212-2, (R)-(+)-[2,3-Dihydro-5-methyl-3-(4-morpholinylmethyl)pyrrolo[1,2,3-de]-1,4-benzoxazin-6-yl]-1-naphthalenylmethanone mesylate]", "values": [
      {"measurement": "cytotoxic / apoptotic effect on hepatic myofibroblasts", "setting": "[2]; serum-deprived cells", "value": "cytotoxic"}
    ]},
    {"compound": "COC(=O)CC(NC(=O)C(C)NC(=O)C(NC(=O)OCc1ccccc1)C(C)C)C(=O)CF", "note": "(stereo not drawn) [ZVAD-fmk, Z-val-Ala-Asp (OCH3)-Fluoromethyl ketone] (Cbz-Val-Ala-Asp(OMe)-CH2F; configuration not given here)", "values": [
      {"measurement": "effect on caspase-3 activation elicited by THC", "setting": "[5]", "value": "totally blunted"},
      {"measurement": "effect on THC-induced DNA laddering", "setting": "[11]; 50 μM ZVAD", "value": "blocked"}
    ]},
    {"compound": "CCCCC/C=C\\C/C=C\\C/C=C\\C/C=C\\CCCC(=O)NCCO", "note": "[anandamide, N-(2-Hydroxyethyl)-5Z,8Z,11Z,14Z-eicosatetraenamide]", "values": [
      {"measurement": "cytotoxic / apoptotic effect on hepatic myofibroblasts", "setting": "[2]; serum-deprived cells", "value": "cytotoxic"}
    ]},
    {"compound": "C=C(C)[C@@H]1CCC(C)=C[C@H]1c1c(O)cc(CCCCC)cc1O", "note": "[cannabidiol]", "values": [
      {"measurement": "cytotoxic / apoptotic effect on hepatic myofibroblasts", "setting": "[2]; serum-deprived cells", "value": "reproduced"},
      {"measurement": "effect on DNA synthesis / growth", "setting": "[4]", "value": "reproduced"}
    ]},
    {"compound": "CC(C)Cc1ccc(C(C)C(=O)O)cc1", "note": "(stereo not drawn) [ibuprofen]", "values": [
      {"measurement": "effect on caspase-3 activation elicited by THC", "setting": "[5]", "value": "did not affect"},
      {"measurement": "effect on the antiproliferative effect of THC", "setting": "[4]", "value": "blunted"}
    ]},
    {"compound": "N-[1S)-endo-1,3,3,-trimethyl bicyclo[2.2.1]heptan-2-yl]-5-(choloro-3-methylphenyl)-1-(4-methyl-benzyl)-pyrazole-3-carboxamide [SR 144528]", "values": [
      {"measurement": "effect on caspase-3 activation elicited by THC", "setting": "[5]", "value": "no activation of caspase-3"},
      {"measurement": "effect of compound alone on caspase-3-like activity", "setting": "[5]; without THC", "value": "had no effect"},
      {"measurement": "effect on apoptosis elicited by HU-210", "setting": "[2]", "value": "prevented"},
      {"measurement": "effect of compound alone on cell viability", "setting": "[2]; without THC", "value": "had no effect"},
      {"measurement": "effect on the antiproliferative effect of THC", "setting": "[4]", "value": "strongly reduced"}
    ]}
  ]
}
